Measurements: ChEMBL document CHEMBL1133673, “Crystal structure of FMN-dependent nitroreductase from Escherichia coli B: a prodrug-activating enzyme” (J Med Chem, 2000)

What was measured:
Escherichia coli B = assay: Catalytic constant determined to activate by FMN-dependent nitroreductase enzyme from Escherichia coli B (NTR)
[1] = target: NAD(P)H dehydrogenase [quinone] 1 (Homo sapiens) (UniProt P15559); assay: Catalytic constant determined to activate by DT diaphorase in human cell lines
NAD(P)H dehydrogenase [quinone] 1 (Homo sapiens), sequence (P15559 whole entry): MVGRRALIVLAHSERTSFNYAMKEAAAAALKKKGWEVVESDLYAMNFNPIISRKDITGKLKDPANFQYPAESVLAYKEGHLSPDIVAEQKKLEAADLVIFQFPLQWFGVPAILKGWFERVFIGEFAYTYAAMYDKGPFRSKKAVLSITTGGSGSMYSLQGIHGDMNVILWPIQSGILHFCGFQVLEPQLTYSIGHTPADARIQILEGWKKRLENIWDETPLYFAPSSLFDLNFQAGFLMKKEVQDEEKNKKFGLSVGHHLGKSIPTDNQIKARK

SMILES | k cat (Escherichia coli B) [s⁻¹] | k cat [1] [s⁻¹]
NC(=O)c1cc(N(CCCl)CCCl)c([N+](=O)[O-])cc1[N+](=O)[O-] | 26.3 | 
NC(=O)c1cc(N2CC2)c([N+](=O)[O-])cc1[N+](=O)[O-] | 6 | 0.0107
